Results on 49 substances are retold here after patent US10517889B2, “Modulators of SMAD7 expression” (Ionis Pharmaceuticals, Inc., priority 2017, dated 2019).

Strand notation (5' to 3'): a small letter for the sugar, then the base; units joined by * are phosphorothioate-linked, units joined directly phosphodiester-linked; [ ] holds rarer units or linkages, { } end groups; capitals alone tell only the bases. k = constrained ethyl (cEt); [5mC] = 5-methylcytosine; d = 2'-deoxy (DNA)

One series has as its system human SMAD7 mRNA. Nature of the series: Antisense inhibition of human SMAD7 mRNA expression in Hep3B cells by 3-10-3 cEt gapmers, 10,000 nM, electroporation (Example 2). The format is cell-based. The settings on record: Hep3B cells, electroporation with 10,000 nM antisense oligonucleotide, approximately 24 hours, RTS5062, percent inhibition of SMAD7 mRNA relative to untreated control cells. In a few lines:
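Hep3B cells (20,000 per well) were electroporated with 10,000 nM 16-mer 3-10-3 cEt gapmer (phosphorothioate, 5-methylcytosine). After about 24 h, SMAD7 mRNA was quantified by qRT-PCR with primer probe set RTS5062, normalised to RIBOGREEN total RNA, and expressed as percent inhibition versus untreated cells.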
One may read the % Inhibition as the drop in the measured response relative to a control, in per cent. A high value points to strong suppression. Turning to “799648 (antisense kA*kT*kG*dA*dA*dA*dG*d[5mC]*d[5mC]*d[5mC]*d[5mC]*d[5mC]*dA*kG*kA*k[5mC]) [compound 799648]”, the “% Inhibition” value stood at 9%.
As for “799649 (antisense kA*kA*kA*dT*dG*dA*dA*dA*dG*d[5mC]*d[5mC]*d[5mC]*d[5mC]*k[5mC]*kA*kG) [compound 799649]”, the “% Inhibition” value turned out to be 53%.
In the case of “799650 (antisense k[5mC]*kA*kG*d[5mC]*dA*dG*dA*d[5mC]*dA*dG*dG*d[5mC]*dA*kA*kA*kA) [compound 799650]”, the “% Inhibition” value turned out to be 46%.
Turning to “799651 (antisense kA*kG*kG*dA*d[5mC]*dA*dG*d[5mC]*dA*dG*dA*d[5mC]*dA*kG*kG*k[5mC]) [compound 799651]”, the “% Inhibition” value is given as 55%.
Consider “799662 (antisense k[5mC]*kG*kT*dG*dA*dG*d[5mC]*dA*d[5mC]*dT*dT*d[5mC]*dT*kG*kT*k[5mC]) [compound 799662]”, for which the “% Inhibition” value came out at 55%.
With “799664 (antisense kG*k[5mC]*k[5mC]*dA*dG*d[5mC]*dA*dA*dG*dG*dA*dT*d[5mC]*kA*kA*kA) [compound 799664]”, the “% Inhibition” value worked out at 8%.
On to “799665 (antisense kG*kA*kT*dG*d[5mC]*d[5mC]*dA*dG*d[5mC]*dA*dA*dG*dG*kA*kT*k[5mC]) [compound 799665]”, for which the “% Inhibition” value was determined as 57%.
Same read-out and setting: the figure for “799666 (antisense k[5mC]*kA*kG*dA*dT*dG*d[5mC]*d[5mC]*dA*dG*d[5mC]*dA*dA*kG*kG*kA) [compound 799666]” is 51%; for “799670 (antisense kT*k[5mC]*kT*dG*dA*dG*dA*d[5mC]*dT*dA*dT*dG*dA*k[5mC]*kA*kG) [compound 799670]” it is 51%; for “799682 (antisense kG*kG*kT*d[5mC]*d[5mC]*dA*dG*dG*dA*d[5mC]*dT*dG*dG*kT*k[5mC]*kT) [compound 799682]” it is 55%.
For the substance “799683 (antisense k[5mC]*kT*kG*d[5mC]*dA*dG*dA*dA*dG*dA*dG*dG*d[5mC]*kG*kG*kG) [compound 799683]”, the “% Inhibition” value was determined as 32%.
Turning to “799684 (antisense kA*kA*kT*dG*d[5mC]*dT*dG*dT*d[5mC]*dA*d[5mC]*d[5mC]*d[5mC]*kT*kG*kT) [compound 799684]”, the “% Inhibition” value came to 52%.
Still for that read-out and setting: the figure for “799685 (antisense kG*kA*kT*dT*dT*dT*dA*dA*dA*dT*dG*d[5mC]*dT*kG*kT*k[5mC]) [compound 799685]” is 25%; for “799687 (antisense kG*kG*k[5mC]*dA*dG*d[5mC]*dA*dG*dA*d[5mC]*d[5mC]*dA*dT*k[5mC]*kT*kT) [compound 799687]” it is 35%.
For the substance “799688 (antisense k[5mC]*kA*k[5mC]*d[5mC]*dA*d[5mC]*d[5mC]*d[5mC]*dA*dA*dA*dG*d[5mC]*k[5mC]*kT*kG) [compound 799688]”, the “% Inhibition” value is 50%.
With “799690 (antisense kA*kG*k[5mC]*dT*dA*d[5mC]*dA*dG*dT*d[5mC]*dA*dG*dG*k[5mC]*kT*kT) [compound 799690]”, the “% Inhibition” value came to 51%.
On the same count and under the same terms, the figure for “799691 (antisense kT*k[5mC]*k[5mC]*d[5mC]*dA*dT*dA*dG*dG*dT*dG*dT*dA*k[5mC]*kA*kA) [compound 799691]” is 49%; for “799702 (antisense k[5mC]*kA*kT*d[5mC]*dA*d[5mC]*d[5mC]*dA*d[5mC]*dT*d[5mC]*dT*dA*k[5mC]*kA*kG) [compound 799702]” it is 43%.
On to “799703 (antisense k[5mC]*k[5mC]*kA*dA*dT*dG*dG*d[5mC]*dA*dT*dT*dG*dA*kA*kT*kA) [compound 799703]”, for which the “% Inhibition” value is 45%.
With “799704 (antisense kA*k[5mC]*k[5mC]*dA*dA*dT*dG*dG*d[5mC]*dA*dT*dT*dG*kA*kA*kT) [compound 799704]”, the “% Inhibition” value was 12%.
The same measure, in the same setting: for “799705 (antisense kA*kA*k[5mC]*dT*dT*dA*dA*dA*dA*dT*dG*dT*dG*k[5mC]*k[5mC]*kA) [compound 799705]” the value was 26%.

The same series, now with this note: Hep3B cells, electroporation, 10,000 nM antisense oligonucleotide, approximately 24 hours, RTS5062, relative to untreated control cells.
In the case of “799652 (antisense kA*k[5mC]*kT*d[5mC]*dA*dA*dA*d[5mC]*d[5mC]*dA*dG*dG*dA*k[5mC]*kA*kG) [compound 799652]”, the “% inhibition of SMAD7 mRNA expression” value is recorded as 0%.
On to “799653 (antisense kA*k[5mC]*k[5mC]*d[5mC]*dA*d[5mC]*dT*d[5mC]*dA*dA*dA*d[5mC]*d[5mC]*kA*kG*kG) [compound 799653]”, for which the “% inhibition of SMAD7 mRNA expression” value turned out to be 51%.
As to “799654 (antisense kG*k[5mC]*kT*dG*dA*dA*dT*dA*dA*d[5mC]*d[5mC]*dT*dA*k[5mC]*kA*kA) [compound 799654]”, the “% inhibition of SMAD7 mRNA expression” value is recorded as 22%.
On to “799655 (antisense kT*kG*k[5mC]*dA*dG*d[5mC]*dT*dG*dA*dA*dT*dA*dA*k[5mC]*k[5mC]*kT) [compound 799655]”, for which the “% inhibition of SMAD7 mRNA expression” value is listed as 47%.
Still for that read-out and setting: the figure for “799656 (antisense k[5mC]*kT*kA*dA*d[5mC]*dT*dG*dG*dG*d[5mC]*dA*dG*dG*kT*k[5mC]*k[5mC]) [compound 799656]” is 60%.
For the substance “799657 (antisense kT*kA*k[5mC]*dA*dA*dG*dT*dG*dG*dT*dT*dG*d[5mC]*kT*kG*kG) [compound 799657]”, the “% inhibition of SMAD7 mRNA expression” value is listed as 62%.
Same read-out and setting: for “799658 (antisense kA*kA*k[5mC]*dT*dA*d[5mC]*dA*dA*dG*dT*dG*dG*dT*kT*kG*k[5mC]) [compound 799658]” the value was 22%.
“799659 (antisense kA*kA*kA*dT*dA*dA*d[5mC]*dT*dA*d[5mC]*dA*dA*dG*kT*kG*kG) [compound 799659]”: the “% inhibition of SMAD7 mRNA expression” value was determined as 57%.
As for “799660 (antisense kT*kG*kG*dG*dA*dG*d[5mC]*dA*d[5mC]*dT*dT*d[5mC]*dT*kT*kT*kT) [compound 799660]”, the “% inhibition of SMAD7 mRNA expression” value is listed as 35%.
The same measure, in the same setting: for “799661 (antisense k[5mC]*kT*k[5mC]*d[5mC]*dA*d[5mC]*dT*dG*d[5mC]*d[5mC]*dT*d[5mC]*d[5mC]*kT*kA*k[5mC]) [compound 799661]” the value was 44%; for “799672 (antisense kA*k[5mC]*kA*dG*dG*dA*dT*dG*dG*dA*dG*d[5mC]*dA*kA*kT*kG) [compound 799672]”, 41%; for “799675 (antisense kT*k[5mC]*k[5mC]*d[5mC]*dA*dG*dT*dT*d[5mC]*dA*dT*dG*dA*kT*k[5mC]*kA) [compound 799675]”, 0%.
In the case of “799676 (antisense kG*kA*kA*dA*d[5mC]*d[5mC]*dA*dT*dG*dA*dG*d[5mC]*dT*kG*kT*kT) [compound 799676]”, the “% inhibition of SMAD7 mRNA expression” value turned out to be 64%.
With “799677 (antisense kG*k[5mC]*kT*d[5mC]*dA*dT*dG*dA*dG*d[5mC]*dA*dT*dT*kT*kG*kG) [compound 799677]”, the “% inhibition of SMAD7 mRNA expression” value was found to be 68%.
Still for that read-out and setting: for “799678 (antisense k[5mC]*kA*k[5mC]*dA*dA*dG*d[5mC]*dA*d[5mC]*d[5mC]*dT*dG*dT*k[5mC]*k[5mC]*kA) [compound 799678]” the value was 0%; for “799679 (antisense k[5mC]*kT*kG*d[5mC]*dA*dG*dG*dG*dT*dA*d[5mC]*dT*dA*kA*kG*kG) [compound 799679]”, 0%.
On the same count and under the same terms, the figure for “799680 (antisense kG*kA*kG*dT*dT*d[5mC]*dT*dA*dG*dG*d[5mC]*d[5mC]*dG*kT*k[5mC]*kA) [compound 799680]” is 33%.
Same read-out and setting: for “799681 (antisense kA*k[5mC]*kT*d[5mC]*dA*dT*d[5mC]*d[5mC]*dT*dG*dT*dT*dG*kG*k[5mC]*kA) [compound 799681]” the value was 53%; for “799692 (antisense kA*k[5mC]*kA*d[5mC]*dA*dG*dT*dA*dA*d[5mC]*dA*dA*d[5mC]*kA*kA*kT) [compound 799692]”, 0%; for “799693 (antisense kT*kT*kA*dT*dG*dA*d[5mC]*dA*d[5mC]*dA*dG*dT*dA*kA*k[5mC]*kA) [compound 799693]”, 17%.
Take “799694 (antisense kA*kA*kG*dG*dA*dA*dT*dT*dA*dT*dG*dA*d[5mC]*kA*k[5mC]*kA) [compound 799694]”: the “% inhibition of SMAD7 mRNA expression” value turned out to be 7%.
The same measure, in the same setting: the figure for “799695 (antisense k[5mC]*k[5mC]*kA*dG*dG*dA*dA*d[5mC]*d[5mC]*dA*dG*d[5mC]*dA*k[5mC]*kT*kT) [compound 799695]” is 6%; for “799696 (antisense kA*kA*kG*dT*dT*dA*dT*d[5mC]*dT*dG*dG*dG*dA*kA*kG*k[5mC]) [compound 799696]” it is 43%.
“799697 (antisense kA*kA*kT*dA*dG*dT*dT*dT*dT*d[5mC]*dT*d[5mC]*dT*k[5mC]*kA*kA) [compound 799697]”: the “% inhibition of SMAD7 mRNA expression” value stood at 59%.
Still for that read-out and setting: the figure for “799698 (antisense kT*kA*kA*dT*dA*dG*dT*dT*dT*dT*d[5mC]*dT*d[5mC]*kT*k[5mC]*kA) [compound 799698]” is 33%; for “799699 (antisense k[5mC]*kA*kA*dA*dA*d[5mC]*dA*dG*dT*dG*dG*dA*d[5mC]*k[5mC]*kA*kT) [compound 799699]” it is 57%.
With “799700 (antisense k[5mC]*kA*kT*dG*dA*d[5mC]*dA*dG*d[5mC]*dA*dA*dA*dG*k[5mC]*kA*kA) [compound 799700]”, the “% inhibition of SMAD7 mRNA expression” value is 49%.
The same measure, in the same setting: the figure for “799701 (antisense k[5mC]*kT*kA*d[5mC]*dA*dG*dT*dT*d[5mC]*d[5mC]*dA*dG*dA*kA*k[5mC]*kA) [compound 799701]” is 46%.
